Data published in PubChem BioAssay AID1963426 (Molecular Pharmacology Branch, DTP, NCI, 2024).
“And” between values parts separate entries of the source, which are not always exact repeats. Equal values may be shown once. Each block holds one compound with its values, some of them ahead of it.

Test system: 186277-243-T-J2-PDC complex spheroid growth, % test/control
Experiment: Anticancer human tumor 186277-243-T-J2-PDC patient-derived colon adenocarcinoma cell line growth inhibition [Asc]
Conditions: for viability, T/C: stronger effect = lower value
Procedure, shortened: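 Complex spheroids combining tumor cells with HUVEC endothelial cells and human MSCs, at 37 degrees C, 5% CO2; agents tested alone or combined, half-log dilutions from at or near clinical Cmax, or 10 microM if Cmax unknown.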

[1] = curve of first compound, second compound 0.1 µM
[2] = curve of first compound, second compound 0.316 µM
[3] = curve of first compound, second compound 1 µM
[4] = curve of first compound, second compound 3.16 µM
[5] = curve of first compound, second compound 10 µM
[6] = second compound 0.1 µM, first compound 0.00316 µM
[7] = second compound 0.1 µM, first compound 0.01 µM
[8] = second compound 0.1 µM, first compound 0.0316 µM
[9] = second compound 0.1 µM, first compound 0.1 µM
[10] = second compound 0.1 µM, first compound 0.316 µM
[11] = second compound 0.1 µM, first compound 1 µM
[12] = second compound 0.316 µM, first compound 0.00316 µM
[13] = second compound 0.316 µM, first compound 0.01 µM
[14] = second compound 0.316 µM, first compound 0.0316 µM
[15] = second compound 0.316 µM, first compound 0.1 µM
[16] = second compound 0.316 µM, first compound 0.316 µM
[17] = second compound 0.316 µM, first compound 1 µM
[18] = second compound 1 µM, first compound 0.00316 µM
[19] = second compound 1 µM, first compound 0.01 µM
[20] = second compound 1 µM, first compound 0.0316 µM
[21] = second compound 1 µM, first compound 0.1 µM
[22] = second compound 1 µM, first compound 0.316 µM
[23] = second compound 1 µM, first compound 1 µM
[24] = second compound 3.16 µM, first compound 0.0316 µM
[25] = second compound 3.16 µM, first compound 0.1 µM
[26] = second compound 3.16 µM, first compound 0.316 µM
[27] = second compound 3.16 µM, first compound 1 µM
[28] = second compound 10 µM, first compound 0.0316 µM
[29] = second compound 10 µM, first compound 0.1 µM
[30] = second compound 10 µM, first compound 0.316 µM
[31] = second compound 10 µM, first compound 1 µM
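Note: spheroids exposed to agents for 7 days.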
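Throughout, for viability, T/C: 100% = DMSO vehicle control wells.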

Structure (SMILES): O=C(c1ccc(F)c(F)c1Nc1ccc(I)cc1F)N1CC(O)([C@@H]2CCCCN2)C1 + Cc1c(S(C)(=O)=O)c(-c2cc(F)cc(N3CCN(c4ccc(NS(=O)(=O)c5ccc(NC(CCN6CCC(C(=O)OCCCP(=O)(O)O)CC6)CSc6ccccc6)c(S(=O)(=O)C(F)(F)F)c5)cc4)CC3)c2)c(-c2ccc(Cl)cc2)n1C(C)C
IC50 [1]: 93.4 nM
IC50 [2]: 73.3 nM
IC50 [3]: 65.9 nM
IC50 [4]: 57.8 nM
IC50 [5]: 52 nM
viability, T/C [6]: 95.5%
viability, T/C [7]: 92.4%
viability, T/C [8]: 107%
viability, T/C [9]: 47%
viability, T/C [10]: 9.22%
viability, T/C [11]: 4.73%
viability, T/C [12]: 101%
viability, T/C [13]: 97.8%
viability, T/C [14]: 88.8%
viability, T/C [15]: 35.7%
viability, T/C [16]: 5.96%
viability, T/C [17]: 2.79%
viability, T/C [18]: 102%
viability, T/C [19]: 99.2%
viability, T/C [20]: 103%
viability, T/C [21]: 20.7%
viability, T/C [22]: 2.79%
viability, T/C [23]: 1.09%
viability, T/C (second compound 3.16 µM, first compound 0.00316 µM): 93.5%
viability, T/C (second compound 3.16 µM, first compound 0.01 µM): 93.1%
viability, T/C [24]: 94.7%
viability, T/C [25]: 10.2%
viability, T/C [26]: 1.13%
viability, T/C [27]: 0.48%
viability, T/C (second compound 10 µM, first compound 0.00316 µM): 88.1%
viability, T/C (second compound 10 µM, first compound 0.01 µM): 93.5%
viability, T/C [28]: 82%
viability, T/C [29]: 7.98%
viability, T/C [30]: 4.2%
viability, T/C [31]: 0.52%

Structure (SMILES): C#Cc1c(F)ccc2cc(O)cc(-c3ncc4c(N5CC6CCC(C5)N6)nc(OCC56CCCN5CC(F)C6)nc4c3F)c12 (configuration not stated)
viability, T/C (compound 0.0316 µM): 103% and 107% and 88.1%
viability, T/C (compound 0.1 µM): 105% and 88.2% and 66.5%
viability, T/C (compound 0.316 µM): 76.8% and 48.2% and 40.8%
viability, T/C (compound 1 µM): 33.4% and 21.4% and 16.8%
viability, T/C (compound 3.16 µM): 19.4% and 12.1% and 11.2%
viability, T/C (compound 10 µM): 12.5% and 8.62% and 7.15%
IC50 (curve of compound): 649 nM and 306 nM and 204 nM

Structure (SMILES): NC(=O)C(=Cn1cnc(-c2cc(C(F)(F)F)cc(C(F)(F)F)c2)n1)c1cncnc1 + CCN1C(C(=O)NC23CCC(C(=O)O)(CC2)CC3)C(c2cccc(Cl)c2F)C2(C(=O)Nc3cc(Cl)ccc32)C12CCCCC2
IC50 (curve of first compound, second compound 0.03 µM): 70.4 nM
IC50 (curve of first compound, second compound 0.0949 µM): 23.4 nM
IC50 (curve of first compound, second compound 0.3 µM): 6.95 nM
IC50 (curve of first compound, second compound 0.949 µM): < 0.949 nM
IC50 (curve of first compound, second compound 3 µM): < 0.949 nM
viability, T/C (second compound 0.03 µM, first compound 0.000949 µM): 111%
viability, T/C (second compound 0.03 µM, first compound 0.003 µM): 113%
viability, T/C (second compound 0.03 µM, first compound 0.00949 µM): 81.5%
viability, T/C (second compound 0.03 µM, first compound 0.03 µM): 60.4%
viability, T/C (second compound 0.03 µM, first compound 0.0949 µM): 56.3%
viability, T/C (second compound 0.03 µM, first compound 0.3 µM): 5.86%
viability, T/C (second compound 0.0949 µM, first compound 0.000949 µM): 109%
viability, T/C (second compound 0.0949 µM, first compound 0.003 µM): 83.3%
viability, T/C (second compound 0.0949 µM, first compound 0.00949 µM): 51.7%
viability, T/C (second compound 0.0949 µM, first compound 0.03 µM): 48%
viability, T/C (second compound 0.0949 µM, first compound 0.0949 µM): 46.1%
viability, T/C (second compound 0.0949 µM, first compound 0.3 µM): 2.91%
viability, T/C (second compound 0.3 µM, first compound 0.000949 µM): 65.2%
viability, T/C (second compound 0.3 µM, first compound 0.003 µM): 58.8%
viability, T/C (second compound 0.3 µM, first compound 0.00949 µM): 45.3%
viability, T/C (second compound 0.3 µM, first compound 0.03 µM): 34.1%
viability, T/C (second compound 0.3 µM, first compound 0.0949 µM): 14%
viability, T/C (second compound 0.3 µM, first compound 0.3 µM): 0.39%
viability, T/C (second compound 0.949 µM, first compound 0.000949 µM): 44.6%
viability, T/C (second compound 0.949 µM, first compound 0.003 µM): 40.1%
viability, T/C (second compound 0.949 µM, first compound 0.00949 µM): 25.3%
viability, T/C (second compound 0.949 µM, first compound 0.03 µM): 7.03%
viability, T/C (second compound 0.949 µM, first compound 0.0949 µM): 1.37%
viability, T/C (second compound 0.949 µM, first compound 0.3 µM): 0.18%
viability, T/C (second compound 3 µM, first compound 0.000949 µM): 24.1%
viability, T/C (second compound 3 µM, first compound 0.003 µM): 20.6%
viability, T/C (second compound 3 µM, first compound 0.00949 µM): 3.76%
viability, T/C (second compound 3 µM, first compound 0.03 µM): 0.85%
viability, T/C (second compound 3 µM, first compound 0.0949 µM): 0.44%
viability, T/C (second compound 3 µM, first compound 0.3 µM): 0.84%

More lines, main results first:

IC50 (curve of first compound, second compound 0.01 µM): 178 nM
IC50 (curve of first compound, second compound 0.0316 µM): 176 nM
IC50 [1]: 134 nM
IC50 [2]: 126 nM
IC50 [3]: 85.4 nM
Structure (SMILES): O=C(c1ccc(F)c(F)c1Nc1ccc(I)cc1F)N1CC(O)([C@@H]2CCCCN2)C1 + CNC(C)C(=O)NC1CN(S(=O)(=O)c2cccc(S(=O)(=O)N3CCC4CCC(C(=O)NC(c5ccccc5)c5ccccc5)N4C(=O)C(NC(=O)C(C)NC)C3)c2)CCC2CCC(C(=O)NC(c3ccccc3)c3ccccc3)N2C1=O
viability, T/C (second compound 0.01 µM, first compound 0.00316 µM): 90.3%
viability, T/C (second compound 0.01 µM, first compound 0.01 µM): 89.6%
viability, T/C (second compound 0.01 µM, first compound 0.0316 µM): 106%
viability, T/C (second compound 0.01 µM, first compound 0.1 µM): 78.4%
viability, T/C (second compound 0.01 µM, first compound 0.316 µM): 21.6%
viability, T/C (second compound 0.01 µM, first compound 1 µM): 11.9%
viability, T/C (second compound 0.0316 µM, first compound 0.00316 µM): 110%
viability, T/C (second compound 0.0316 µM, first compound 0.01 µM): 95.9%
viability, T/C (second compound 0.0316 µM, first compound 0.0316 µM): 115%
viability, T/C (second compound 0.0316 µM, first compound 0.1 µM): 82.2%
viability, T/C (second compound 0.0316 µM, first compound 0.316 µM): 17%
viability, T/C (second compound 0.0316 µM, first compound 1 µM): 10.4%
viability, T/C [6]: 107%
viability, T/C [7]: 104%
viability, T/C [8]: 98.8%
viability, T/C [9]: 61.7%
viability, T/C [10]: 15.8%
viability, T/C [11]: 9.21%
viability, T/C [12]: 112%
viability, T/C [13]: 112%
viability, T/C [14]: 108%
viability, T/C [15]: 59.4%
viability, T/C [16]: 12.6%
viability, T/C [17]: 7.61%
viability, T/C [18]: 106%
viability, T/C [19]: 119%
viability, T/C [20]: 105%
viability, T/C [21]: 41.2%
viability, T/C [22]: 8.18%
viability, T/C [23]: 7.39%

IC50 [1]: > 10000 nM
IC50 [2]: > 10000 nM
IC50 [3]: > 10000 nM
IC50 [4]: > 10000 nM
IC50 [5]: > 10000 nM
Structure (SMILES): C=CC(=O)N1CCN(c2nc(=O)n(-c3c(C)ccnc3C(C)C)c3nc(-c4c(O)cccc4F)c(F)cc23)C(C)C1 (configuration not stated) + Cc1c(S(C)(=O)=O)c(-c2cc(F)cc(N3CCN(c4ccc(NS(=O)(=O)c5ccc(NC(CCN6CCC(C(=O)OCCCP(=O)(O)O)CC6)CSc6ccccc6)c(S(=O)(=O)C(F)(F)F)c5)cc4)CC3)c2)c(-c2ccc(Cl)cc2)n1C(C)C
viability, T/C [8]: 120%
viability, T/C [9]: 105%
viability, T/C [10]: 105%
viability, T/C [11]: 108%
viability, T/C (second compound 0.1 µM, first compound 3.16 µM): 116%
viability, T/C (second compound 0.1 µM, first compound 10 µM): 113%
viability, T/C [14]: 111%
viability, T/C [15]: 104%
viability, T/C [16]: 104%
viability, T/C [17]: 104%
viability, T/C (second compound 0.316 µM, first compound 3.16 µM): 119%
viability, T/C (second compound 0.316 µM, first compound 10 µM): 116%
viability, T/C [20]: 128%
viability, T/C [21]: 115%
viability, T/C [22]: 100%
viability, T/C [23]: 116%
viability, T/C (second compound 1 µM, first compound 3.16 µM): 119%
viability, T/C (second compound 1 µM, first compound 10 µM): 119%
viability, T/C [24]: 105%
viability, T/C [25]: 123%
viability, T/C [26]: 115%
viability, T/C [27]: 111%
viability, T/C (second compound 3.16 µM, first compound 3.16 µM): 116%
viability, T/C (second compound 3.16 µM, first compound 10 µM): 116%
viability, T/C [28]: 102%
viability, T/C [29]: 109%
viability, T/C [30]: 102%
viability, T/C [31]: 119%
viability, T/C (second compound 10 µM, first compound 3.16 µM): 104%
viability, T/C (second compound 10 µM, first compound 10 µM): 110%
